System: 485176-168-R4-J1-PDC spheroids with HUVEC/MSC, viability
Test: Anticancer human tumor 485176-168-R4-J1-PDC patient-derived pancreatic adenocarcinoma cell line growth inhibition [GQUAD]
Conditions: for IC50: curve of first compound; for viability, T/C: stronger effect = lower value
Procedure, shortened: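 Viability of tumor cells grown as complex spheroids with endothelial and stromal cells, exposed to drug combinations. Top concentration at or near clinical Cmax (else 10 microM), diluted in half-log increments.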

[1] = second compound 0.0316 µM, first compound 0.0316 µM
[2] = second compound 0.0316 µM, first compound 0.1 µM
[3] = second compound 0.0316 µM, first compound 0.316 µM
[4] = second compound 0.0316 µM, first compound 1 µM
[5] = second compound 0.0316 µM, first compound 3.16 µM
[6] = second compound 0.0316 µM, first compound 10 µM
[7] = second compound 0.1 µM, first compound 0.0316 µM
[8] = second compound 0.1 µM, first compound 0.1 µM
[9] = second compound 0.1 µM, first compound 0.316 µM
[10] = second compound 0.1 µM, first compound 1 µM
[11] = second compound 0.1 µM, first compound 3.16 µM
[12] = second compound 0.1 µM, first compound 10 µM
[13] = second compound 0.316 µM, first compound 0.0316 µM
[14] = second compound 0.316 µM, first compound 0.1 µM
[15] = second compound 0.316 µM, first compound 0.316 µM
[16] = second compound 0.316 µM, first compound 1 µM
[17] = second compound 0.316 µM, first compound 3.16 µM
[18] = second compound 0.316 µM, first compound 10 µM
[19] = second compound 1 µM, first compound 0.0316 µM
[20] = second compound 1 µM, first compound 0.1 µM
[21] = second compound 1 µM, first compound 0.316 µM
[22] = second compound 1 µM, first compound 1 µM
[23] = second compound 1 µM, first compound 3.16 µM
[24] = second compound 1 µM, first compound 10 µM
[25] = second compound 3.16 µM, first compound 0.0316 µM
[26] = second compound 3.16 µM, first compound 0.1 µM
[27] = second compound 3.16 µM, first compound 0.316 µM
[28] = second compound 3.16 µM, first compound 1 µM
[29] = second compound 3.16 µM, first compound 3.16 µM
[30] = second compound 3.16 µM, first compound 10 µM
[31] = second compound 10 µM, first compound 0.0316 µM
[32] = second compound 10 µM, first compound 0.1 µM
[33] = second compound 10 µM, first compound 0.316 µM
[34] = second compound 10 µM, first compound 1 µM
[35] = second compound 10 µM, first compound 3.16 µM
[36] = second compound 10 µM, first compound 10 µM
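Note: spheroids exposed to compounds for seven days before readout.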
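Throughout, for viability, T/C: percent viability relative to DMSO vehicle control wells as 100%.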

With `CC1COCCN1c1cc(C2(O)CC3CCC(C2)O3)c2cnn(-c3ccn[nH]3)c2n1` (stereo unspecified) + Cc1[nH]c2ccc(F)cc2c1-c1nc2c3cccnc3c3ncccc3c2[nH]1 the IC50 (second compound 0.0316 µM) was 0.0719 µM, the IC50 (second compound 0.1 µM) was 0.0679 µM and the IC50 (second compound 0.316 µM) was 0.118 µM. It also gave an IC50 (second compound 1 µM) of 0.0675 µM, an IC50 (second compound 3.16 µM) of 0.0466 µM and an IC50 (second compound 10 µM) of 0.0599 µM. For the same compound, the viability, T/C [1] was 67.4%, the viability, T/C [2] was 43% and the viability, T/C [3] was 17.3%. It also gave a viability, T/C [4] of 10.1%, a viability, T/C [5] of 11.5% and a viability, T/C [6] of 7.63%. The viability, T/C [7] was 66.5%, the viability, T/C [8] was 41.6% and the viability, T/C [9] was 14.1%. For the same compound, the viability, T/C [10] was 8.96%, the viability, T/C [11] was 12% and the viability, T/C [12] was 8.29%. For the same compound, the viability, T/C [13] was 56.8%, the viability, T/C [14] was 55.5% and the viability, T/C [15] was 16.6%. The viability, T/C [16] was 8.98%, the viability, T/C [17] was 11.9% and the viability, T/C [18] was 8.2%. For the same compound, the viability, T/C [19] was 61.8%, the viability, T/C [20] was 44% and the viability, T/C [21] was 19.3%. It also gave a viability, T/C [22] of 12.1%, a viability, T/C [23] of 10.7% and a viability, T/C [24] of 8.42%. For the same compound, the viability, T/C [25] was 57.6%, the viability, T/C [26] was 35% and the viability, T/C [27] was 17.2%. For the same compound, the viability, T/C [28] was 9.84%, the viability, T/C [29] was 11.1% and the viability, T/C [30] was 8.07%. For the same compound, the viability, T/C [31] was 64.1%, the viability, T/C [32] was 38.7% and the viability, T/C [33] was 13.5%. The viability, T/C [34] was 11.5%, the viability, T/C [35] was 10.8% and the viability, T/C [36] was 8.33%.
For `COc1ccc([C@@H](O)c2cc(-c3ncnc4cc(N5CCOCC5)ccc34)c(F)cc2Cl)nn1` + CN(C)c1ccc(Nc2c3ccc(NC(=O)CCN4CCCC4)cc3nc3cc(NC(=O)CCN4CCCC4)ccc23)cc1, the IC50 (second compound 0.0316 µM) was 5.71 µM, the IC50 (second compound 0.1 µM) was 4.75 µM and the IC50 (second compound 0.316 µM) was 4.76 µM. For the same compound, the IC50 (second compound 1 µM) was 4.58 µM, the IC50 (second compound 3.16 µM) was 4.12 µM and the IC50 (second compound 10 µM) was 3.13 µM. For the same compound, the viability, T/C [1] was 97.4%, the viability, T/C [2] was 96.6% and the viability, T/C [3] was 96.1%. It also gave a viability, T/C [4] of 82.3%, a viability, T/C [5] of 70.9% and a viability, T/C [6] of 31.4%. It also gave a viability, T/C [7] of 97.6%, a viability, T/C [8] of 98.4% and a viability, T/C [9] of 89.1%. It also gave a viability, T/C [10] of 80.5%, a viability, T/C [11] of 60.6% and a viability, T/C [12] of 30.7%. It also gave a viability, T/C [13] of 87%, a viability, T/C [14] of 92.2% and a viability, T/C [15] of 109%. The viability, T/C [16] was 75.6%, the viability, T/C [17] was 62.9% and the viability, T/C [18] was 30.6%. For the same compound, the viability, T/C [19] was 106%, the viability, T/C [20] was 91.8% and the viability, T/C [21] was 100%. It also gave a viability, T/C [22] of 84.1%, a viability, T/C [23] of 60.9% and a viability, T/C [24] of 27.1%. For the same compound, the viability, T/C [25] was 108%, the viability, T/C [26] was 107% and the viability, T/C [27] was 81.4%. It also gave a viability, T/C [28] of 74.9%, a viability, T/C [29] of 57.9% and a viability, T/C [30] of 31.8%. The viability, T/C [31] was 77.6%, the viability, T/C [32] was 87.5% and the viability, T/C [33] was 73.7%. The viability, T/C [34] was 61.9%, the viability, T/C [35] was 52.4% and the viability, T/C [36] was 23.8%.
Work on `C#Cc1c(F)ccc2cc(O)cc(-c3ncc4c(N5CC6CCC(C5)N6)nc(OCC56CCCN5CC(F)C6)nc4c3F)c12` (stereo unspecified) + Cc1[nH]c2ccc(F)cc2c1-c1nc2c3cccnc3c3ncccc3c2[nH]1 yielded an IC50 (second compound 0.0316 µM) greater than 10 µM, an IC50 (second compound 0.1 µM) greater than 10 µM and an IC50 (second compound 0.316 µM) greater than 10 µM. The IC50 (second compound 1 µM) was greater than 10 µM, the IC50 (second compound 3.16 µM) was greater than 10 µM and the IC50 (second compound 10 µM) was greater than 10 µM. It also gave a viability, T/C [1] of 92.5%, a viability, T/C [2] of 95.7% and a viability, T/C [3] of 91.5%. The viability, T/C [4] was 84.1%, the viability, T/C [5] was 90.3% and the viability, T/C [6] was 89.7%. The viability, T/C [7] was 93%, the viability, T/C [8] was 102% and the viability, T/C [9] was 101%. For the same compound, the viability, T/C [10] was 109%, the viability, T/C [11] was 103% and the viability, T/C [12] was 93.6%. The viability, T/C [13] was 91%, the viability, T/C [14] was 101% and the viability, T/C [15] was 93.4%. The viability, T/C [16] was 107%, the viability, T/C [17] was 99.1% and the viability, T/C [18] was 87%. The viability, T/C [19] was 105%, the viability, T/C [20] was 89.2% and the viability, T/C [21] was 92.4%. For the same compound, the viability, T/C [22] was 81.5%, the viability, T/C [23] was 109% and the viability, T/C [24] was 93%. For the same compound, the viability, T/C [25] was 98.9%, the viability, T/C [26] was 80.9% and the viability, T/C [27] was 105%. For the same compound, the viability, T/C [28] was 97.6%, the viability, T/C [29] was 90.4% and the viability, T/C [30] was 95.3%. It also gave a viability, T/C [31] of 96.6%, a viability, T/C [32] of 92% and a viability, T/C [33] of 82.7%. The viability, T/C [34] was 87.8%, the viability, T/C [35] was 85.1% and the viability, T/C [36] was 86.5%.

Source: PubChem BioAssay AID2060509 (Molecular Pharmacology Branch, DTP, NCI, 2025)
